Measured values from patent US20140275049A1, “SUBSTITUTED PYRAZOLE ANALOGS As RAR ANTAGONISTS” (Eli Lilly and Company, priority 2011, published 2014).

Tested on: MIA model of pain
Assay: Monosodium iodoacetate (MIA) model of pain
Type: in vivo, rat
Conditions: rats, dose of 0.1 mg/kg, dosed once on day 9 post MIA, measured 2 h post dosing
Excerpt: The injection of monoiodoacetic acid (MIA) into the knee joint of rats produces an acute inflammatory insult, which then develops into chronic degeneration of the joint tissues in the injected joint. The pain resulting from the joint injury can be measured via differential weight bearing of the hind legs using an incapacitance tester. […] Efficacy is routinely measured by the ability of a compound to partially normalize weight distribution. The maximal efficacy that can be achieved in the standard MIA is dependent on the mechanism being studied; however, for many mechanisms the maximal efficacy achieved results in a 25%-50% reduction in the weight bearing differential.
Use Male Lewis rats approximately 150-170 g and between 6-8 weeks of age. Let the animals acclimate to the environment for at least 72 h. […]
Incapacitance Tester Readings—Incapacitance Testers (Columbus Instruments International, Columbus, Ohio) for weight bearing measurements. […] A total of three one second readings are taken to reflect the amount of pressure exerted on both the left and right hind paw while the rat is positioned in the chamber. The force exerted by each hind paw is measured in grams and calculated as the left hind paw weight distribution-right hind paw weight distribution. Thus, the final paw weight distribution for each animal is an average of the three one second readings. […]

Question: With `CN1CCN(C(=O)c2ccc(-n3nc(-c4ccc(C(=O)O)cc4)cc3-c3cc(C(C)(C)C)cc(C(C)(C)C)c3)cc2)CC1` [Example 1, 4-[5-(3,5-Di-tert-butylphenyl)-1-[4-(4-methylpiperazine-1-carbonyl)phenyl]pyrazol-3-yl]benzoic Acid] as the compound, how does the “inhibition of pain (hind paw weight bearing differential) compared to vehicle” value read?
Answer: significantly inhibits pain
